Source: ChEMBL document CHEMBL3301562, “MMV Box screening against Plasmodium falciparum protein kinases and aminoacyl tRNA synthetases”

Legend:
Type in all cases: functional
Lysine--tRNA ligase = Lysine--tRNA ligase (Plasmodium falciparum (isolate 3D7), UniProt Q8IDJ8); assay: MMV: KRS recombinant Plasmodium falciparum Lysyl-tRNA-synthetase, assay with yeast tRNA, ATP, and lysine and 3 uM MMV malaria box compound, assay read out with kinase glo as % inhibition.
[1] = target: T1, Calcium-dependent protein kinase 4 (Plasmodium falciparum (isolate 3D7), UniProt Q8IBS5); assay: MMV: CDPK4 Protein kinase inhibition assay using recombinant PfCDPK4, syntide2 peptide substrate, ATP and KinaseGlo to measure % inhibition at 1 uM MMV box compound.
T1 sequence (Q8IBS5 whole entry): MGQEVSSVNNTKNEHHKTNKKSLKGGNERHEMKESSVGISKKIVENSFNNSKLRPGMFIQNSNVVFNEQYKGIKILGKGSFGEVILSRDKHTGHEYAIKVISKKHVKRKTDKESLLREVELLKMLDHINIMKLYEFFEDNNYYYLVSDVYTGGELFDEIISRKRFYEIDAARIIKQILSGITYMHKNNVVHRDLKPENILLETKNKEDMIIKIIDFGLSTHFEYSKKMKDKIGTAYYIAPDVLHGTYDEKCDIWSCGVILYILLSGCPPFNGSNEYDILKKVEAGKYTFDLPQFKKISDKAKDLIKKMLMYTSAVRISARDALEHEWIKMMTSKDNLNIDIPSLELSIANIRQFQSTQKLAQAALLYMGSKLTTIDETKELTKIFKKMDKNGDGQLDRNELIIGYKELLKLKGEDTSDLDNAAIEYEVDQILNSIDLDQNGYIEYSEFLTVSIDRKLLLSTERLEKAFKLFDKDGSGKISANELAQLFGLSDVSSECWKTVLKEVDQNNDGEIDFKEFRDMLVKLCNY

[2] = target: T2, Cdk-related protein kinase 6 (Plasmodium falciparum, UniProt O77239); assay: Final concentrations were 1.5 uM ATP, 5 mM MnCl2, and 15 ug/ml PK6 in a buffer of 100 mM Tris-HCl (pH 7.5). 50 ug/mL MBP was provided as the substrate; 10 uM staurosporine was used as a control inhibitor. Incubation time was 3 hours and 40 minutes.The catalytic activity of each kinase was considered proportional to ATP consumed, as determined from measurements of residual [ATP] with the luciferase-based reagent Kinase-Glo (Promega) following incubation. Luminescence (proportional to residual [ATP]) was measured on the plate readers FLx800 (BioTek Instruments, Winooski, VT, USA) and MicroBeta2.
T2 sequence (O77239 whole entry): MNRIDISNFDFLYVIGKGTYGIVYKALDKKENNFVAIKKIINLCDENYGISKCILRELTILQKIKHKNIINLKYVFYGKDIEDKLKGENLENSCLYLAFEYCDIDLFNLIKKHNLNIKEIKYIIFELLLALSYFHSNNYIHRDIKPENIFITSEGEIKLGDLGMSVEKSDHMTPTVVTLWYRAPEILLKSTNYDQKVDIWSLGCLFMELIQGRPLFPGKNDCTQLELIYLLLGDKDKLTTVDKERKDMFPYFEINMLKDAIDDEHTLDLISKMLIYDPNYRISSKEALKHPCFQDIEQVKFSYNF

[3] = target: T3, Putative uncharacterized protein pk7 (Plasmodium falciparum, UniProt O96214); assay: Final concentrations were 1 uM ATP, 2 mM DTT, 20 mM MgCl2, 2 mM MnCl2, 0.01% BSA, and 6 ug/ml PK7, in a buffer of 20 mM Tris-HCl (pH 7.5). The enzyme itself was the only substrate present (since autophosphorylation occurs); 100 uM 1NA-PP1 was used as a control inhibitor. Incubation time was 3 hours.
T3 sequence (O96214 whole entry): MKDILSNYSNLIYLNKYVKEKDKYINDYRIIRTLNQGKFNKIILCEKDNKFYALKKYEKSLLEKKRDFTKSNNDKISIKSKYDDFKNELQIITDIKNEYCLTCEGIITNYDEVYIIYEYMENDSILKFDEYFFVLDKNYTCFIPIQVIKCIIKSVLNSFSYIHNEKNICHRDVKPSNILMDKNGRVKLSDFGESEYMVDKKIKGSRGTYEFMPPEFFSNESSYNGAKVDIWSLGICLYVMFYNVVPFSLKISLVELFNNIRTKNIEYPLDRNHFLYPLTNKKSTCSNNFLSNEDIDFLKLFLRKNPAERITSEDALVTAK

[4] = target: Calcium-dependent protein kinase 1 (Plasmodium falciparum, UniProt P62344); assay: MMV: CDPK1 Protein kinase inhibition assay using recombinant PfCDPK1, syntide 2 peptide substrate, ATP and KinaseGlo to measure % inhibition at 1 uM MMV box compound.
Sequence of Calcium-dependent protein kinase 1 (P62344 whole entry): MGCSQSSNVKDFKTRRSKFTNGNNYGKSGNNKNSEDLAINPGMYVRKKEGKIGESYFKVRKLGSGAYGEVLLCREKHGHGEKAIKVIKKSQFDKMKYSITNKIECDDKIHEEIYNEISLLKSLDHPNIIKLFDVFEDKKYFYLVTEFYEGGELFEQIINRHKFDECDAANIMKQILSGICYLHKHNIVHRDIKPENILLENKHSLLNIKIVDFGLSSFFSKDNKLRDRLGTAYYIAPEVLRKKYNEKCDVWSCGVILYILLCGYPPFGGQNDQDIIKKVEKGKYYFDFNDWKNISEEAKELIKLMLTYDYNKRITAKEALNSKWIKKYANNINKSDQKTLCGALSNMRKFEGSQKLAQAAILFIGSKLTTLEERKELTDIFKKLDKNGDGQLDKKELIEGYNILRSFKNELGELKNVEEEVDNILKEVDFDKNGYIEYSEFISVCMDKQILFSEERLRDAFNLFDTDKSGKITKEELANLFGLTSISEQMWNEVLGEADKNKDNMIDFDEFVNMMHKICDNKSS

Proline--tRNA ligase = target: T4, Proline--tRNA ligase (Plasmodium falciparum (isolate 3D7), UniProt Q8I5R7); assay: MMV: ProRS recombinant Plasmodium falciparum Prolyl-tRNA-synthetase, assay with yeast tRNA, ATP, and proline and 3 uM MMV malaria box compound, assay read out with kinase glo as % inhibition.
T4 sequence (Q8I5R7 whole entry): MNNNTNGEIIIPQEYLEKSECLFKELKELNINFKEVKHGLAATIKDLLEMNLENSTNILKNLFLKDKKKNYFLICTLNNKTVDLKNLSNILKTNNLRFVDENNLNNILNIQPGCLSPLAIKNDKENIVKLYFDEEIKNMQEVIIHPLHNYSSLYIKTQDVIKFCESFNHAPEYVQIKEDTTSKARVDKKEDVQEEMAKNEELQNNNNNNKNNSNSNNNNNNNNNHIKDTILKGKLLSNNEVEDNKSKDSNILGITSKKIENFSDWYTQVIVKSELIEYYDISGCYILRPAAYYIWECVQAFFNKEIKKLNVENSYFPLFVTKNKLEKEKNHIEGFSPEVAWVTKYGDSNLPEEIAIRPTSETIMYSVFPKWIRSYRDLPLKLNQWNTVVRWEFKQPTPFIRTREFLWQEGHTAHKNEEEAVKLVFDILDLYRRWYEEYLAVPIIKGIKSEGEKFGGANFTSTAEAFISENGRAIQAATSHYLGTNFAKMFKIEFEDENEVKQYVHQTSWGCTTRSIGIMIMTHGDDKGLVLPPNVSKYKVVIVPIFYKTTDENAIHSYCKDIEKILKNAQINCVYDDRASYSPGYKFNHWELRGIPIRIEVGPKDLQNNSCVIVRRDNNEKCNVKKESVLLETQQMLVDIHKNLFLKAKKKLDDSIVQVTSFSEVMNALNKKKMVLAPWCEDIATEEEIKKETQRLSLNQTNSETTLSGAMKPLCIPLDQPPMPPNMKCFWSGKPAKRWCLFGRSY

[5] = target: T5, Mitogen-activated protein kinase (Plasmodium falciparum, UniProt Q25917); assay: Final concentrations were 1 uM ATP, 0.5 mM DTT, 1 mM MgCl2, 0.5 mg/mL BSA, and 10 ug/ml MAP2 in a buffer of 50 mM HEPES (pH 7.0). 0.5 mg/mL histone III-S served as the substrate (13); 100 uM AMP-PNP, an ATP analog, was used as a control inhibitor. Incubation time was 4 hours.
T5 sequence (Q25917 whole entry): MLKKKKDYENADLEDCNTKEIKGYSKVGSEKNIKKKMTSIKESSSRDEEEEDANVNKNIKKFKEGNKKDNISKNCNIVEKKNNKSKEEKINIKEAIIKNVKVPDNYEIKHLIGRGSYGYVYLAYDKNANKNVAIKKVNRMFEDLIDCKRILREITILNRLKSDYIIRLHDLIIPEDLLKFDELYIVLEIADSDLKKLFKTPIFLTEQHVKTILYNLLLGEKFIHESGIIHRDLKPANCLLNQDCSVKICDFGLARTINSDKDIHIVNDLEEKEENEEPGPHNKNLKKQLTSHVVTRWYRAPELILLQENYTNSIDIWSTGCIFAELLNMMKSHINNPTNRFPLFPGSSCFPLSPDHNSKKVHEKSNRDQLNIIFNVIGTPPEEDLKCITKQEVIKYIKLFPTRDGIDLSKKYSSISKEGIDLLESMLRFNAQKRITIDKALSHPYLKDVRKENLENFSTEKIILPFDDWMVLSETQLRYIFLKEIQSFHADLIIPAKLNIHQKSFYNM

Sequence of Lysine--tRNA ligase (Q8IDJ8 whole entry): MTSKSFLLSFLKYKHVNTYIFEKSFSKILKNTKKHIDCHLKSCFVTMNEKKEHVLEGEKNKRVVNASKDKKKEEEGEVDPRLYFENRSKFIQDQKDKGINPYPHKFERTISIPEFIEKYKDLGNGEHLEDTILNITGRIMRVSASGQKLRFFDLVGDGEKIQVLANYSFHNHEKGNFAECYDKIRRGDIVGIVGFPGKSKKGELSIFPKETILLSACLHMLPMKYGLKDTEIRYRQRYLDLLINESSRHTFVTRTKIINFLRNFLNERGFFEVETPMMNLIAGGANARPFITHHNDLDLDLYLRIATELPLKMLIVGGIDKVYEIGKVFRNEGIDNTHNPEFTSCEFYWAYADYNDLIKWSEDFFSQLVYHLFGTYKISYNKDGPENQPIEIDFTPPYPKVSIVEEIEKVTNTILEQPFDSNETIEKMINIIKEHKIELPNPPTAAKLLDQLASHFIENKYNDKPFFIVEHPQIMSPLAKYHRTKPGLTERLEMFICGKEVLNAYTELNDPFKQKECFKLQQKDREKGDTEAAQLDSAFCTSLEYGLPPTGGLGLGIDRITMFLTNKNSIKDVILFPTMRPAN

Compound | IC50 (Lysine--tRNA ligase) [nM] | IC50 [1] [nM] | IC50 [2] [nM] | IC50 [3] [nM] | IC50 [4] [nM] | IC50 (Proline--tRNA ligase) [nM] | IC50 [5] [nM]
CCOC(=O)C1=C(C)N=c2sc(=Cc3ccccc3O)c(=O)n2C1c1ccc(OC)c2ccccc12 (stereo not given) | > 2500 | > 1000 | > 1000 | > 1000 | > 1000 | > 2500 | > 1000
c1ccc2c(NCCCCCCNc3c4c(nc5ccccc35)CCCC4)c3c(nc2c1)CCCC3 | > 2500 | > 1000 | > 1000 | > 1000 | > 1000 | > 2500 | > 1000
Nc1ccc(-c2nc3cc(Cc4ccc5[nH]c(-c6ccc(N)cc6)nc5c4)ccc3[nH]2)cc1 | > 2500 | > 1000 | > 1000 | > 1000 | > 1000 | > 2500 | > 1000
CCCCOC(=O)c1ccc(Nc2cc(C)nc3ccc(OC)cc23)cc1 | > 2500 | > 1000 | > 1000 | > 1000 | > 1000 | > 2500 | > 1000
O=c1cc(NC2CCN(CCCc3ccccc3)CC2)c2cc(Cl)ccc2o1 | > 2500 | > 1000 | > 1000 | > 1000 | > 1000 | > 2500 | > 1000
COc1ccc(C2NCCc3c2[nH]c2ccccc32)cc1CN1CCN(c2ccc(F)cc2)CC1 (stereo not given) | > 2500 | > 1000 | > 1000 | > 1000 | > 1000 | > 2500 | > 1000
CCOc1ccc(-n2cc(-c3ccccc3)c3c(SCc4cc(C)ccc4C)ncnc32)cc1 | > 2500 | > 1000 | > 1000 | > 1000 | > 1000 | > 2500 | > 1000
Cc1ccc(C)c(Cn2c(N3CCC(C(=O)NCc4cccs4)CC3)nc3ccccc32)c1 | > 2500 | > 1000 | > 1000 | > 1000 | > 1000 | > 2500 | > 1000
CC1CCN(Cc2c(O)ccc3cc(-c4nc5ccccc5s4)c(=O)oc23)CC1 | > 2500 | > 1000 | > 1000 | > 1000 | > 1000 | > 2500 | > 1000
Cc1ccc2cc3c(N)c4c(C)ccc(C)c4nc3nc2c1 | > 2500 | > 1000 | > 1000 | > 1000 | > 1000 | > 2500 | > 1000
COc1ccc(C2C(C(=O)Nc3cccc(OC)c3)c3ccccc3C(=O)N2C2CCCCC2)cc1 (stereo not given) | > 2500 | > 1000 | > 1000 | > 1000 | > 1000 | > 2500 | > 1000
c1ccc2c(NCCc3c[nH]c4ccccc34)c3ccccc3nc2c1 | > 2500 | > 1000 | > 1000 | > 1000 | > 1000 | > 2500 | > 1000
CCOC(=O)c1cnc2c(C)cccc2c1Nc1ccc(C(C)=O)cc1 | > 2500 | > 1000 | > 1000 | > 1000 | > 1000 | > 2500 | > 1000
Cc1ccc(C2CC(C(F)(F)F)n3nc(C(=O)N4CCN(C(c5ccccc5)c5ccccc5)CC4)cc3N2)cc1 (stereo not given) | > 2500 | > 1000 | > 1000 | > 1000 | > 1000 | > 2500 | > 1000
COc1cccc(C(=O)NC(c2ccc(C)cc2)c2cc(Cl)c3cccnc3c2O)c1 (stereo not given) | > 2500 | > 1000 | > 1000 | > 1000 | > 1000 | > 2500 | > 1000
CCOc1ccc2c(c1)CN(Cc1ccc(Cl)cc1)CO2 | > 2500 | > 1000 | > 1000 | > 1000 | > 1000 | > 2500 | > 1000
CCCc1c(C)nc2ccc(Br)cc2c1O | > 2500 | > 1000 | > 1000 | > 1000 | > 1000 | > 2500 | > 1000
COc1ccc(CCNC(=O)c2cc(S(=O)(=O)N3CC(C)CC(C)C3)ccc2Sc2ccc(F)cc2)cc1OC (stereo not given) | > 2500 | > 1000 | > 1000 | > 1000 | > 1000 | > 2500 | > 1000
CCOc1ccc(Nc2c3ccccc3nc3ccccc23)cc1 | > 2500 | > 1000 | > 1000 | > 1000 | > 1000 | > 2500 | > 1000
COc1ccccc1N1C(=N)SC(=Cc2ccc(OCc3ccccc3F)cc2)C1=O | > 2500 | > 1000 | > 1000 | > 1000 | > 1000 | > 2500 | > 1000
